# Like-named read-outs stand apart in the source and are kept apart here. Where a SMILES comes first, the peptide text is derived from it. Where no end group is shown, it is not given here.
# What was measured:
# [1] = rat, whole blood, pH 7.4
# [2] = incubated in human blood, pH 7.4, 37° C.
# Caco-2 cell monolayer = settings: for increase in permeability compared to capped hexapeptide Ac-Trp-Ala-Gly-Gly-Asp-Ala-NH2: Caco-2 Papp ratio; for Papp (apparent permeability coefficient): applied to AP side, flux to BL side of Caco-2 monolayer; for permeation to BL side of the monolayer: AP-to-BL, in the absence or presence of protease inhibitors (bestatin, diprotin, captopril)
# [3] = HBSS, pH 7.4, 37° C.
# [4] = human, Caco-2
# [5] = human, whole blood, pH 7.4
# in vitro = settings: rat, blood, pH 7.4
compound,measurement,setting,value
"C[C@@H]1NC(=O)[C@H](Cc2c[nH]c3ccccc23)NC(=O)OCOC(=O)[C@H](C)NC(=O)[C@H](CC(=O)O)NC(=O)CNC(=O)CNC1=O [1a] (HELM PEPTIDE1{W.A.G.G.D.A}|CHEM1{[O=C(OCO[*:2])[*:1]]}$PEPTIDE1,CHEM1,1:R1-1:R1|PEPTIDE1,CHEM1,6:R2-1:R2$$$V2.0)",half-life,[1],1.85 h
same,T1/2 in human blood,[2],1.65 h
same,increase in permeability compared to capped hexapeptide Ac-Trp-Ala-Gly-Gly-Asp-Ala-NH2,Caco-2 cell monolayer,5-6 fold
same,Papp (apparent permeability coefficient),Caco-2 cell monolayer,1.17±0.11×10^-7 cm/sec.
same,half-life of chemical stability (T1/2),[3],3.47 h
"WAGGDA [Trp-Ala-Gly-Gly-Asp-Ala, reference compound]",remaining at 2 h,[4],0.8 ± 0.1%
same,permeation to BL side of the monolayer,Caco-2 cell monolayer,no detectable quantities
same,permeation to BL side of the monolayer,Caco-2 cell monolayer; listed as native peptide,totally impermeable
"Cc1cc(C)c2c(c1)OC(=O)[C@H](C)NC(=O)[C@H](CC(=O)O)NC(=O)CNC(=O)CNC(=O)[C@H](C)NC(=O)[C@H](Cc1c[nH]c3ccccc13)NC(=O)CC2(C)C [1b] (HELM PEPTIDE1{W.A.G.G.D.A}|CHEM1{[Cc1cc(C)c(C(C)(C)CC(=O)[*:1])c(O[*:2])c1]}$PEPTIDE1,CHEM1,1:R1-1:R1|PEPTIDE1,CHEM1,6:R2-1:R2$$$V2.0)",half-life,[5],2.88 h
same,increase in permeability compared to capped hexapeptide Ac-Trp-Ala-Gly-Gly-Asp-Ala-NH2,Caco-2 cell monolayer,5-6 fold
same,Papp (apparent permeability coefficient),Caco-2 cell monolayer,1.21±0.36×10^-7 cm/sec.
same,half-life of chemical stability (T1/2),[3],12.7 h
same,half-life,in vitro,2.88 h
"Ac-WAGGDA-NH2 [Ac-Trp-Ala-Gly-Gly-Asp-Ala-NH2, reference compound]",remaining at 3 h,[4],75.8 ± 4%
same,Papp (apparent permeability coefficient),Caco-2 cell monolayer,2.1±0.5×10^-8 cm/sec.

# Source: patent US5672584A (priority 1995, dated 1997)
